According to patent US20230416329A1, “A PEPTIDE WITH DISULFIDE BONDS AND INHIBITORY ACTIVITY AGAINST SERINE PROTEASES, DERIVED HYBRID PEPTIDES THEREOF, AND USES THEREOF” (INSTITUTE OF MATERIA MEDICA , CHINESE ACADEMY OF MEDICAL …, priority 2020, published 2023):
Read-outs that look alike come from different tables or passages of the source. Each block holds one molecule with its values, some of them ahead of it. Bridge positions count the residues as written; N and C are the ends. Peptide text beside a SMILES is read from it.

Target: T1, bovine trypsin (Bos taurus, UniProt P00760)
T1 sequence (P00760 24-246): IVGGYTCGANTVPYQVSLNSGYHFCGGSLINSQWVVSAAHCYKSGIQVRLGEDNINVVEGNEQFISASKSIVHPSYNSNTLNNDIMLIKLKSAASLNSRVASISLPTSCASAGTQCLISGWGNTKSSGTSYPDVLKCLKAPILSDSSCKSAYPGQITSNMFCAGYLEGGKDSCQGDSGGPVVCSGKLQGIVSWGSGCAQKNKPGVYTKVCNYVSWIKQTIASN
Experiment: Trypsin inhibitory activity of peptides (BApNA hydrolysis, OD405; IC50, Ki, residual activity)
Format: biochemical
Description: The substrates N-succinyl-Ala-Ala-Pro-Phe-p-nitroaniline (AAPFpNA), Nα—Benzoyl-L-arginine-4-nitroaniline hydrochloride (BApNA) and N-succinyl-[…] (AAApNA) are used in competitive binding reaction to determine the inhibitory activities against α-chymotrypsin, bovine trypsin, and porcine pancreatic elastase, respectively. Experiments for α-chymotrypsin and bovine trypsin inhibition were measured in 20 mM CaCl2, 50 mM Tris-HCl buffer (pH 7.8), and that for porcine elastase inhibition was measured in 50 mM Tris-HCl buffer (pH 8.0). The concentration of the peptide was measured using optical density (OD) at 280 nm. The Michaelis constant (Km) of the enzyme hydrolysis substrate is calculated from the initial rate of substrate hydrolysis at 405 nm. The absorbance value of the substrate was measured at 405 nm after complete hydrolysis. All data were processed using nonlinear regression.
• (1) Added 200 μL of reaction buffer (20 mM CaCl2 and 50 mM Tris-HCl, pH 7.8) into the 96-well plate, and preheated at 37° C. for 15 min. Then added 5 μL of different concentrations of substrates (p-Nitroanilide, pNA, 0.5% in DMSO), and mixed by centrifugation at 500 rpm for 1 min. […] The experiment was performed in triplicate. The standard curve was obtained by plotting the OD405 nm value with pNA concentration. • (2) Added 190 μL of reaction buffer (20 mM CaCl2 and 50 mM Tris-HCl, pH 7.8) and 10 μL of 1 μM trypsin into the 96-well plate, and preheated at 37° C. for 15 min. Then added 5 μL of different concentrations of substrates (BApNA, 0.5% in DMSO) and mixed by centrifugation at 500 rpm for 1 min. […] The experiment was performed in triplicate. The corresponding curve was obtained by plotting the OD405 nm value with time. Divided the slope of the curve by the slope of the standard curve and the enzyme concentration to obtain the initial velocity V0 (mM/(min*mM protein). Plotted the initial velocity V0 with the concentration of substrate BApNA using Prism software, and the Michaelis constant Km value of trypsin hydrolyzing BApNA was obtained.
• (1) Added a total 190 μL of reaction buffer (20 mM CaCl2 and 50 mM Tris-HCl, pH 7.8) along with different concentrations of anti-trypsin peptides (BTs) into the pre-cooled 96-well plate, followed by preheating at 37° C., and spined down at 500 rpm for 5 min. Next added 10 μL of 1 μM trypsin, incubated at 37° C., and then spined down at 500 rpm for 10 min. Finally, added 5 μL of 50 mM BApNA, and mixed by centrifugation at 500 rpm for 1 min. The plate was incubated at 37° C. for 260 min, and the absorbance value at 405 nm was measured. The experiment was performed in triplicate. The blank control only contained the reaction buffer and the substrate as the minimum absorption value (Min OD405 nm). The negative control only contained the reaction buffer, the enzyme and the substrate as the maximum absorption value (Max OD405 nm). • (2) In the reaction system of 205 μL, the final concentrations of trypsin and BApNA were 50 nM and 1.22 mM, respectively. • (3) Data statistics
Residual activity of the enzyme (%)=(1−(Max OD405 nm−Sample OD405 nm)/(Max OD405 nm−Min OD405 nm))*100
Plotted the residual activity of the enzyme with […] to obtain the half inhibitory concentration (IC50) of BTs scaffold against trypsin. Then, substituted it into the formula Ki=IC50/(1+S/Km) (S, IC50 and Km were substrate concentration, half inhibitory concentration and Michaelis constant, respectively) to obtain the inhibition constant Ki of BTs scaffold against trypsin.

[1] = Ki=IC50/(1+S/Km), Km 0.33 mM, read-out: Ki

Compound: CC[C@H](C)[C@@H]1NC(=O)[C@@H]2CCCN2C(=O)[C@@H]2CCCN2C(=O)[C@H]([C@@H](C)CC)NC(=O)[C@H](CO)NC(=O)[C@H](CCCCN)NC(=O)[C@H]([C@@H](C)O)NC(=O)[C@H](C)NC(=O)[C@H](CCCNC(=N)N)NC(=O)CNC(=O)[C@@H](N)CSSC[C@@H](C(=O)O)NC(=O)[C@H](Cc2ccccc2)NC(=O)[C@H](C)NC1=O [BT11] (H-CGRATKSIPPIAFC-OH; disulfide 1-14; N-terminus and C-terminus assumed)
inhibitory activity against trypsin (in words): still maintained good inhibitory activity against trypsin
Residual trypsin activity (peptide 0.488 μM): 100.2 ± 3.7%
Residual trypsin activity (peptide 0.7317 μM): 102.4 ± 4.2%
Residual trypsin activity (peptide 0.98 μM): 101.5 ± 5.1%
Residual trypsin activity (peptide 1.561 μM): 79.3 ± 1.0%
Residual trypsin activity (peptide 1.95 μM): 75.8 ± 4.6%
Residual trypsin activity (peptide 2.93 μM): 6.2 ± 3.1%
Residual trypsin activity (peptide 3.90 μM): 4.1 ± 1.0%
Residual trypsin activity (peptide 4.88 μM): 1.4 ± 0.3%

Compound: CC[C@H](C)[C@@H]1NC(=O)[C@H](CO)NC(=O)[C@H](CCCCN)NC(=O)[C@H]([C@@H](C)O)NC(=O)[C@H](C)NC(=O)[C@H](CCCNC(=N)N)NC(=O)CNC(=O)[C@@H](N)CSSC[C@@H](C(=O)N[C@@H](Cc2ccc(O)cc2)C(=O)O)NC(=O)[C@H](CCC(N)=O)NC(=O)[C@@H]2CCCN2C(=O)[C@@H]2CCCN2C1=O [BT12] (H-CGRATKSIPPQCY-OH; disulfide 1-12; N-terminus and C-terminus assumed)
inhibitory activity against trypsin (in words): significant impact on their anti-trypsisn activities
Residual trypsin activity (peptide 0.0488 μM): 100.5 ± 2.0%
Residual trypsin activity (peptide 0.2439 μM): 106.5 ± 3.4%
Residual trypsin activity (peptide 0.98 μM): 107.9 ± 1.4%
Residual trypsin activity (peptide 3.90 μM): 68.3 ± 0.1%
Residual trypsin activity (peptide 5.85 μM): 24.0 ± 1.2%
Residual trypsin activity (peptide 9.76 μM): 0.7 ± 0.1%
Residual trypsin activity (peptide 14.63 μM): 0.3 ± 0.1%
Residual trypsin activity (peptide 19.51 μM): −0.2 ± 0.1%

Compound: CC[C@H](C)[C@@H]1NC(=O)[C@@H]2CCCN2C(=O)[C@@H]2CCCN2C(=O)[C@H]([C@@H](C)CC)NC(=O)[C@H](CO)NC(=O)[C@H](CCCCN)NC(=O)[C@H]([C@@H](C)O)NC(=O)[C@H](C)NC(=O)[C@H](CCCNC(=N)N)NC(=O)CNC(=O)[C@@H](N)CSSC[C@@H](C(=O)O)NC(=O)[C@H](C)NC1=O [BT13] (H-CGRATKSIPPIAC-OH; disulfide 1-13; N-terminus and C-terminus assumed)
inhibitory activity against trypsin (in words): still maintained good inhibitory activity against trypsin

Compound: CC[C@H](C)[C@@H]1NC(=O)[C@H](CO)NC(=O)[C@H](CCCNC(=N)N)NC(=O)[C@H]([C@@H](C)O)NC(=O)[C@H](C)NC(=O)[C@H](CCCNC(=N)N)NC(=O)CNC(=O)[C@@H](N)CSSC[C@@H](C(=O)N[C@@H](Cc2ccccc2)C(=O)O)NC(=O)[C@H](C)NC(=O)[C@@H]2CCCN2C(=O)[C@@H]2CCCN2C1=O [BT15] (H-CGRATRSIPPACF-OH; disulfide 1-12; N-terminus and C-terminus assumed)
inhibitory activity against trypsin (in words): significant impact on their anti-trypsisn activities

Compound: CC[C@H](C)[C@@H]1NC(=O)[C@@H]2CCCN2C(=O)[C@@H]2CCCN2C(=O)[C@H]([C@@H](C)CC)NC(=O)[C@H](CO)NC(=O)[C@H](CCCNC(=N)N)NC(=O)[C@H]([C@@H](C)O)NC(=O)[C@H](C)NC(=O)[C@H](CCCNC(=N)N)NC(=O)CNC(=O)[C@@H](N)CSSC[C@@H](C(=O)N[C@@H](Cc2ccc(O)cc2)C(=O)O)NC1=O [BT18] (H-CGRATRSIPPICY-OH; disulfide 1-12; N-terminus and C-terminus assumed)
inhibitory activity against trypsin (in words): significant impact on their anti-trypsisn activities

The next lines start with the values.

inhibitory activity against trypsin (in words): excellent trypsin inhibitory activities
Residual trypsin activity (peptide 0.00098 μM): 99.7 ± 0.6%
Residual trypsin activity (peptide 0.00488 μM): 99.8 ± 1.8%
Residual trypsin activity (peptide 0.0098 μM): 95.5 ± 1.1%
Residual trypsin activity (peptide 0.098 μM): 55.6 ± 2.3%
Residual trypsin activity (peptide 0.195 μM): 17.2 ± 3.4%
Residual trypsin activity (peptide 0.488 μM): 1.0 ± 0.1%
Residual trypsin activity (peptide 0.7317 μM): 0.2 ± 0.1%
Residual trypsin activity (peptide 0.98 μM): −0.1 ± 0.1%
Ki (read-out: inhibition constant (Ki) towards trypsin): 20 nM
IC50 (trypsin 50 nM, BApNA 1.22 mM, read-out: IC50): 110 nM
Compound: CC[C@H](C)[C@@H]1NC(=O)[C@H](C)NC(=O)[C@@H]2CCCN2C(=O)[C@H]([C@@H](C)CC)NC(=O)[C@H](CO)NC(=O)[C@H](CCCCN)NC(=O)[C@H]([C@@H](C)O)NC(=O)[C@H](C)NC(=O)[C@H](CCCNC(=N)N)NC(=O)CNC(=O)[C@@H](N)CSSC[C@@H](C(=O)N[C@@H](Cc2ccccc2)C(=O)O)NC1=O [BT10] (H-CGRATKSIPAICF-OH; disulfide 1-12)

inhibitory activity against trypsin (in words): reduced their anti-trypsin activities
Compound: CC(C)C[C@@H]1NC(=O)[C@H](CO)NC(=O)[C@H](CCCCN)NC(=O)[C@H]([C@@H](C)O)NC(=O)[C@H](C)NC(=O)[C@H](CCCNC(=N)N)NC(=O)CNC(=O)[C@@H](N)CSSC[C@@H](C(=O)N[C@@H](Cc2ccccc2)C(=O)O)NC(=O)[C@H](C)NC(=O)[C@@H]2CCCN2C(=O)[C@@H]2CCCN2C1=O [BT14] (H-CGRATKSLPPACF-OH; disulfide 1-12; N-terminus and C-terminus assumed)

inhibitory activity against trypsin (in words): reduced their anti-trypsin activities
Ki [1]: 190 nM
inhibitory activity against trypsin (in words) (listed as SEQ ID NO: 16): excellent trypsin inhibitory activities
Residual trypsin activity (peptide 0.00488 μM): 95.4 ± 4.3%
Residual trypsin activity (peptide 0.0098 μM): 96.1 ± 0.6%
Residual trypsin activity (peptide 0.0195 μM): 101.7 ± 1.2%
Residual trypsin activity (peptide 0.390 μM): 88.4 ± 2.0%
Residual trypsin activity (peptide 0.780 μM): 59.7 ± 3.2%
Residual trypsin activity (peptide 0.98 μM): 42.2 ± 3.3%
Residual trypsin activity (peptide 2.439 μM): 0.8 ± 0.1%
Residual trypsin activity (peptide 4.88 μM): 0.0 ± 0.2%
Compound: CC[C@H](C)[C@@H]1NC(=O)[C@H](C)NC(=O)[C@@H]2CCCN2C(=O)[C@H](CC(C)C)NC(=O)[C@H](CO)NC(=O)[C@H](CCCCN)NC(=O)[C@H]([C@@H](C)O)NC(=O)[C@H](C)NC(=O)[C@H](CCCNC(=N)N)NC(=O)CNC(=O)[C@@H](N)CSSC[C@@H](C(=O)N[C@@H](Cc2ccccc2)C(=O)O)NC1=O [BT16] (H-CGRATKSLPAICF-OH; disulfide 1-12; C-terminus assumed)

inhibitory activity against trypsin (in words): excellent trypsin inhibitory activities
Ki [1]: 120 nM
Residual trypsin activity (peptide 0.00098 μM): 97.9 ± 0.8%
Residual trypsin activity (peptide 0.0098 μM): 97.5 ± 0.7%
Residual trypsin activity (peptide 0.098 μM): 93.6 ± 4.5%
Residual trypsin activity (peptide 0.488 μM): 61.9 ± 3.0%
Residual trypsin activity (peptide 0.7317 μM): 30.0 ± 5.3%
Residual trypsin activity (peptide 0.98 μM): 1.5 ± 0.3%
Residual trypsin activity (peptide 9.76 μM): 0.1 ± 0.0%
Residual trypsin activity (peptide 97.56 μM): 0.1 ± 0.0%
decrease in inhibitory activity compared to BT9 (trypsin): ~12 fold
Compound: CC[C@H](C)[C@@H]1NC(=O)[C@@H]2CCCN2C(=O)[C@@H]2CCCN2C(=O)[C@H]([C@@H](C)CC)NC(=O)[C@H](CO)NC(=O)[C@H](CCCNC(=N)N)NC(=O)[C@H]([C@@H](C)O)NC(=O)[C@H](C)NC(=O)[C@H](CCCNC(=N)N)NC(=O)CNC(=O)[C@@H](N)CSSC[C@@H](C(=O)N[C@@H](Cc2ccccc2)C(=O)O)NC1=O [BT17] (H-CGRATRSIPPICF-OH; disulfide 1-12; C-terminus assumed)
